# Laboratory results from PMC2683593 (The Journal of neuroscience : the official journal of the …, 2009).
# Where “and” joins values, the source holds several entries; their conditions need not be identical. Identical values can stand only once. Entries after “also recorded” stand apart in the source; their conditions may differ. Like-named read-outs stand apart in the source and are kept apart here.
# Columns and labels:
# Type in all cases: cell-based, Swiss-Webster mice
# cerebrocortical neurons [1] = system: cerebrocortical neurons
# cerebrocortical neurons [2] = system: cerebrocortical neurons; remark: listed apart in the source
# cerebrocortical neurons [3] = experiment: Viable neuron count by fluorescein diacetate staining; conditions: read-out: EC50 for decreasing the live neuron count, DIV-9, 95% CI 38.4–176 μM
# cerebrocortical neurons [4] = experiment: Intracellular Ca2+ monitoring
# NMDA receptors = experiment: Single-channel cell-attached patch recording of NMDA receptor currents
# cerebrocortical neurons [5] = experiment: Membrane potential assay
# Src kinase = system: Src kinase
# cerebrocortical neurons [6] = experiment: Intracellular sodium concentration
# [7] = 15 min preincubation with 10 μM PP2 or PP3, after PbTx-2
# [8] = 15 min preincubation with 10 μM PP2 or PP3, before PbTx-2
compound,measurement,setting,value
C[C@]12N[C@H](Cc3ccccc31)c1ccccc12 [MK-801],effect on PbTx-2 enhanced neurite outgrowth,cerebrocortical neurons [1],abrogated
same,"total neurite length, inhibitor plus 30 nM PbTx-2",cerebrocortical neurons [1],83.1± 5.26 μm
CN[C@H](CC(=O)O)C(=O)O [NMDA],sensitivity to NMDA-induced LDH efflux,"cerebrocortical neurons [2]; 2, 4 and 6 DIV cultures, after 2 h exposure or at 24 h post-exposure",little sensitivity
same,maximal LDH efflux,"cerebrocortical neurons [2]; DIV-9 cultures, 24 h after initiation of 2 h NMDA exposure",247 ± 10.5 % of control
same,EC50,"cerebrocortical neurons [2]; read-out: EC50 for LDH efflux, DIV-9 neurons, 95% CI 27.9–101 μM",53.1 µM
same,EC50,cerebrocortical neurons [3],82.2 µM
same,effect of NMDA alone on [Ca2+]i,"cerebrocortical neurons [4]; 3 μM NMDA, DIV-2 neurons",did not affect [Ca^2+]i
same,EC50,"cerebrocortical neurons [4]; read-out: EC50 for NMDA-induced Ca2+ influx, DIV-4 neurons, absence of PbTx-2",19.2 µM
same,EC50,"cerebrocortical neurons [4]; read-out: EC50 for NMDA-induced Ca2+ influx, DIV-9 neurons, absence of PbTx-2",11.1 µM
"Nc1ncnc2c1cnn2-c1ccccc1 [PP3, 4-Amino-7-phenylpyrazol [3,4-d] pyrimidine]","mean open time, inhibitor plus PbTx-2",NMDA receptors; [7],3.87 ± 0.15 ms
same,"open probability (Po), inhibitor plus PbTx-2",NMDA receptors; [7],0.013 ± 0.003
same,"mean open time, inhibitor alone (control)",NMDA receptors; [8],1.39 ± 0.09 ms
same,"open probability (Po), inhibitor alone (control)",NMDA receptors; [8],0.0032 ± 0.0005
"C=C(C=O)C[C@@H]1C[C@H](O)[C@]2(C)O[C@@H]3C[C@@H]4O[C@@H]5C[C@]6(C)O[C@]7(C)CC[C@@H]8O[C@@H]9C[C@]%10(C)O[C@@H]%11C(C)=CC(=O)O[C@H]%11C[C@H]%10O[C@H]9C[C@@H](C)[C@H]8O[C@H]7C[C@H]6O[C@H]5C/C=C\[C@H]4O[C@H]3C[C@H]2O1 [PbTx-2, Brevetoxin-2]",membrane potential after PbTx-2,cerebrocortical neurons [5],29.3 ± 0.02 mV
same,membrane potential change (depolarization),cerebrocortical neurons [5],0.2 ± 0.02 mV
same,EC50,cerebrocortical neurons [5]; read-out: EC50 for increment in FMP blue fluorescence (membrane potential),0.0967 µM
same,phosphorylation of tyrosine 416 of Src,Src kinase,significant increase
same,total neurite length,cerebrocortical neurons [1],265.8 ± 20.86 μm and 166.5 ± 17.9 μm
same,amplitude of single channel currents,NMDA receptors,6.8 ± 0.4 pA
same,effect on membrane potential from single channel NMDA receptor currents,NMDA receptors,did not affect
same,open probability (Po) of NMDA receptors,NMDA receptors,0.031 ± 0.008
same,"open time histogram, first time constant (area)",NMDA receptors,1.6 (65%)
same,"open time histogram, second time constant (area)",NMDA receptors,4.1 (35%)
same,"shut time histogram, first time constant (area)",NMDA receptors,0.63 (45%)
same,"shut time histogram, fourth time constant (area)",NMDA receptors,1361 (11%)
same,"shut time histogram, second time constant (area)",NMDA receptors,10.0 (16%)
same,"shut time histogram, third time constant (area)",NMDA receptors,180 (28%)
same,Ca2+ influx pathway stimulated,cerebrocortical neurons [4],primarily through NMDA receptors; also recorded: through both L-type calcium channels and NMDA receptors
same,effect of PbTx-2 alone on [Ca2+]i,cerebrocortical neurons [4],did not alter [Ca^2+]i
same,effect of PbTx-2 alone on fluo-3 fluorescence,cerebrocortical neurons [4],did not increase fluo-3 fluorescence
same,effect on NMDA-induced Ca2+ influx,cerebrocortical neurons [4],robust potentiation
same,EC50,cerebrocortical neurons [4]; read-out: EC50 for PbTx-2-stimulated increase in [Ca2+]i,0.244 µM
same,[Na+]i increment over basal,cerebrocortical neurons [6],8.8 ± 1.8 mM
same,concentration-response profile of [Na+]i,cerebrocortical neurons [6],hormetic profile
same,maximum [Na+]i,cerebrocortical neurons [6],16.9 ± 1.5 mM
same,maximum elevation of [Na+]i (concentration-response),cerebrocortical neurons [6],36.6 ± 0.9 mM
same,EC50,cerebrocortical neurons [6]; read-out: EC50 for PbTx-2-induced elevation of [Na+]i,0.0433 µM
"O=C(O)c1ccc2c3c1cccc3c(=O)n1c3ccccc3nc21 [STO-609, 1,8-naphthoylene benzimidazole-3-carboxylic acid]",effect on PbTx-2 enhanced neurite outgrowth,cerebrocortical neurons [1],completely blocked
"NC1=N[C@H](O)[C@H]2[C@H]3O[C@]4(O)O[C@@H]([C@@H](O)[C@@]2(N1)[C@@H]4O)[C@]3(O)CO [TTX, tetrodotoxin]",effect on PbTx-2 enhanced neurite outgrowth,cerebrocortical neurons [1],completely blocked
same,"total neurite length, inhibitor alone",cerebrocortical neurons [1],185 ± 13.2 μm
same,"total neurite length, inhibitor plus 30 nM PbTx-2",cerebrocortical neurons [1],190.2 ± 10.7 μm
